Reference: patent publication US20100009935A1, “RESISTANCE-REPELLENT […] INHIBITORS” (priority 2002, published 2010)
Where two headings read alike, the source gives them in different places.

Experiments:
Format in all cases: cell-based
[1] = test system: HIV-1ERS104pre (wild-type clinical strain); experiment: PI sensitivity of wild-type clinical isolate in PHA-PBMC, p24; settings: for FOLD CHANGE of IC50: wild type HIV-1ERS104pre, reference (=1)
HIV-1 clinical isolate 2 = experiment: PI sensitivity of PI-resistant clinical isolate 2 in PHA-PBMC, p24; settings: for IC50: isolate 2: L10I, I15V, K20R, N36I, H46L, I54V, K55R, I62V, L63P, K70D, V82A, L89N, PHA-PBMC, p24; for FOLD CHANGE of IC50: isolate 2 compared to HIV-1wt (HIV-1ERS104pre)
HIV-1 clinical isolate 1 = experiment: PI sensitivity of PI-resistant clinical isolate 1 in PHA-PBMC, p24; settings: for IC50: Human immunodeficiency virus 1, isolate 1: L10I, K14R, L33I, N36I, H46I, F53L, K55R, I62V, L63P, A71V, G73S, V82A, L90M, I93L, PHA-PBMC, p24; for FOLD CHANGE of IC50: isolate 1 compared to HIV-1wt (HIV-1ERS104pre)
HIV-1 clinical isolate 4 = experiment: PI sensitivity of PI-resistant clinical isolate 4 in PHA-PBMC, p24; settings: for IC50: isolate 4: L10I, V11I, T12E, I15V, L19I, B41K, H46L, L63P, A71T, V82A, L90M, PHA-PBMC, p24; for FOLD CHANGE of IC50: isolate 4 compared to HIV-1wt (HIV-1ERS104pre)
HIV-1 clinical isolate 7 = experiment: PI sensitivity of PI-resistant clinical isolate 7 in PHA-PBMC, p24; settings: for IC50: Human immunodeficiency virus 1, isolate 7: L10I, L24I, L33F, E35D, H36I, H37S, N46L, I54V, R57K, I62V, L63P, A71V, G73S, V82A, PHA-PBMC, p24; for FOLD CHANGE of IC50: isolate 7 compared to HIV-1wt (HIV-1ERS104pre)
HIV-1UIC-P62 = experiment: PI sensitivity of compound 1-selected HIV-1UIC-P62 in MT-2 cells, MTT assay; settings: HIV-1UIC-P62 (L10F, A28S, M46I, I50V, A71V, N88D), day 7
HIV-1NL4-3 = settings: for IC50: Human immunodeficiency virus 1, MT2, 168 h, HIV-1NL4-3 (wild type), MT-2 cells, MTT assay, day 7; for FOLD CHANGE of IC50: HIV-1NL4-3, reference (=1)
HIV-1 clinical isolate 6 = experiment: PI sensitivity of PI-resistant clinical isolate 6 in PHA-PBMC, p24; settings: for IC50: Human immunodeficiency virus 1, isolate 6: L10I, K14R, B41K, H46L, I54V, L63P, A71V, V82A, L90M, I93L, PHA-PBMC, p24; for FOLD CHANGE of IC50: isolate 6 compared to HIV-1wt (HIV-1ERS104pre)
[2] = test system: highly cross-resistant HIV-1 strains derived from AIDS patients
HIV-1 clinical isolate 8 = experiment: PI sensitivity of PI-resistant clinical isolate 8 in PHA-PBMC, p24; settings: for IC50: isolate 8: L10R, H37D, N46I, I62V, L63P, A71V, G73S, V77I, V82T, L90M, I93L, PHA-PBMC, p24; for FOLD CHANGE of IC50: isolate 8 compared to HIV-1wt (HIV-1ERS104pre)
HIV-1APV-P30 = experiment: PI sensitivity of APV-selected HIV-1APV-P30 in MT-2 cells, MTT assay; settings: for FOLD CHANGE of IC50: HIV-1APV-P30 compared to HIV-1NL4-3 (wild type)
HIV-1 clinical isolate 3 = experiment: PI sensitivity of PI-resistant clinical isolate 3 in PHA-PBMC, p24; settings: for IC50: isolate 3: L10I, I15V, E35D, N37E, K45R, I54V, L63P, A71V, V82I, L90N, I93L, C95F, PHA-PBMC, p24; for FOLD CHANGE of IC50: isolate 3 compared to HIV-1wt (HIV-1ERS104pre)
HIV-2EHO = experiment: Drug sensitivity of HIV-2EHO in MT-2 cells, MTT assay; settings: HT-2 (footnote: MT-2 cells), day 7, read-out: MEAN IC50 (μM) ± SDs
Protocol: (§1) The sensitivities of HIV-1LAI, HIV-1Ba-L, HIV-2EHO and the primary HIV-1 isolates against various drugs were determined as previously described with minor modifications (Shiraska et al., Proc. Natl. Acad. Sci. USA, 92, 2398-2402 (1995)).

HIV-1 clinical isolate 5 = experiment: PI sensitivity of PI-resistant clinical isolate 5 in PHA-PBMC, p24; settings: for IC50: isolate 5: L10I, K43T, N46L, I54L, L63P, A71T, V82A, L90N, D92K, PHA-PBMC, p24; for FOLD CHANGE of IC50: isolate 5 compared to HIV-1wt (HIV-1ERS104pre)
HIV-1LAI = experiment: microbe, parasite or virus in culture; settings: day 7, read-out: MEAN IC50 (μM) ± SDs
Protocol: as §1

HIV-1Ba-L = experiment: microbe, parasite or virus in culture; settings: Human immunodeficiency virus 1, 168 h, PBNC (PHA-PBMC), p24 production, day 7, read-out: MEAN IC50 (μM) ± SDs
Protocol: as §1

[3] = Human immunodeficiency virus 1, read-out: IC50 μM
[4] = Human immunodeficiency virus 1, MT2, 168 h
[5] = multidrug resistant patient isolates
[6] = Human immunodeficiency virus 2, MT2, 168 h
[7] = Human immunodeficiency virus 1, 168 h, PBMC (PHA-PBMC), p24 production
[8] = Human immunodeficiency virus 1, MT2, 168 h, HT-2 (footnote: MT-2 cells), MTT assay

| SMILES | IC50 [1, 3] | IC50 (HIV-1 clinical isolate 2; Human immunodeficiency virus 1) | IC50 (HIV-1 clinical isolate 1) | IC50 (HIV-1 clinical isolate 4; Human immunodeficiency virus 1) | IC50 (HIV-1 clinical isolate 7) | IC50 (HIV-1UIC-P62; [4]) | IC50 (HIV-1NL4-3) | IC50 (HIV-1 clinical isolate 6) | antiviral activity against patient isolates with multiple mutations compared with wild type HIV strains (in words) [2, 5] | IC50 (HIV-1 clinical isolate 8; Human immunodeficiency virus 1) | IC50 (HIV-1APV-P30; [4]) | IC50 (HIV-1 clinical isolate 3; Human immunodeficiency virus 1) | IC50 (HIV-2EHO; [6]) | IC50 (HIV-1 clinical isolate 5; Human immunodeficiency virus 1) | IC50 (HIV-1LAI; [7]) | IC50 (HIV-1LAI; [8]) | IC50 (HIV-1Ba-L) | further results |
| --- | --- | --- | --- | --- | --- | --- | --- | --- | --- | --- | --- | --- | --- | --- | --- | --- | --- | --- |
| Cc1c(O)cccc1C(=O)N[C@@H](CSc1ccccc1)[C@H](O)CN1C[C@H]2CCCC[C@H]2C[C@H]1C(=O)NC(C)(C)C [NFV, Nelfinavir] | 0.023 µM | 330 nM | > 1000 nM | 90 nM | > 1000 nM | 110 nM | 23 nM | > 1000 nM | dramatically less potent | > 1000 nM | > 1000 nM | > 1000 nM | 0.02 ± 0.01 µM | 410 nM | 0.009 ± 0.0003 µM | 0.005 ± 0.002 µM | – | – |
| CC(C)(C)NC(=O)[C@@H]1CN(Cc2cccnc2)CCN1C[C@@H](O)C[C@@H](Cc1ccccc1)C(=O)N[C@H]1c2ccccc2C[C@H]1O [IDV, Indinavir] | 0.013 µM | 490 nM | > 1000 nM | 210 nM | > 1000 nM | 80 nM | 11 nM | 300 nM | – | 550 nM | 320 nM | 490 nM | 0.01 ± 0.004 µM | > 1000 nM | 0.015 ± 0.004 µM | 0.019 ± 0.009 µM | 0.017 ± 0.011 µM | FOLD CHANGE of IC50 [1]: (1) fold; FOLD CHANGE of IC50 (HIV-1 clinical isolate 2): (38) fold; FOLD CHANGE of IC50 (HIV-1 clinical isolate 1): (>77) fold; FOLD CHANGE of IC50 (HIV-1 clinical isolate 4): (16) fold; FOLD CHANGE of IC50 (HIV-1 clinical isolate 7): (>77) fold; FOLD CHANGE of IC50 (HIV-1NL4-3): (1) fold; FOLD CHANGE of IC50 (HIV-1 clinical isolate 6): (23) fold; antiviral activity against patient isolates with multiple mutations compared with wild type HIV strains (in words) [2]: dramatically less potent; FOLD CHANGE of IC50 (HIV-1 clinical isolate 8): (42) fold; FOLD CHANGE of IC50 (HIV-1APV-P30): (30) fold; FOLD CHANGE of IC50 (HIV-1 clinical isolate 3): (38) fold; FOLD CHANGE of IC50 (HIV-1 clinical isolate 5): (>77) fold |
| CC(C)c1nc(CN(C)C(=O)N[C@H](C(=O)N[C@@H](Cc2ccccc2)C[C@H](O)[C@H](Cc2ccccc2)NC(=O)OCc2cncs2)C(C)C)cs1 [RTV, Ritonavir] | 0.044 µM | > 1000 nM | > 1000 nM | > 1000 nM | > 1000 nM | 55 nM | 38 nM | > 1000 nM | dramatically less potent | > 1000 nM | > 1000 nM | > 1000 nM | 0.35 ± 0.025 µM | > 1000 nM | 0.04 ± 0.008 µM | 0.041 ± 0.005 µM | 0.038 ± 0.02 µM | FOLD CHANGE of IC50 [1]: (1) fold; FOLD CHANGE of IC50 (HIV-1 clinical isolate 2): (>23) fold; FOLD CHANGE of IC50 (HIV-1 clinical isolate 1): (>23) fold; FOLD CHANGE of IC50 (HIV-1 clinical isolate 4): (>23) fold; FOLD CHANGE of IC50 (HIV-1 clinical isolate 7): (>23) fold; FOLD CHANGE of IC50 (HIV-1NL4-3): (1) fold; FOLD CHANGE of IC50 (HIV-1 clinical isolate 6): (>23) fold; FOLD CHANGE of IC50 (HIV-1 clinical isolate 8): (>23) fold; FOLD CHANGE of IC50 (HIV-1APV-P30): (>26) fold; FOLD CHANGE of IC50 (HIV-1 clinical isolate 3): (>23) fold; FOLD CHANGE of IC50 (HIV-1 clinical isolate 5): (>23) fold |
| CC(C)CN(C[C@@H](O)[C@H](Cc1ccccc1)NC(=O)O[C@H]1CCOC1)S(=O)(=O)c1ccc(N)cc1 [APV, Amprenavir] | 0.025 µM | 280 nM | 270 nM | 310 nM | 490 nM | 830 nM | 42 nM | 160 nM | much less effective | 150 nM | > 1000 nM | 260 nM | 0.53 ± 0.03 µM | 670 nM | 0.017 ± 0.003 µM | 0.041 ± 0.01 µM | 0.023 ± 0.009 µM | – |
| OC[C@@H]1CC[C@H](n2cnc3c(O)ncnc32)O1 [ddI, 2′,3′-dideoxyinosine] | – | – | – | – | – | – | – | – | – | – | – | – | 2.8 ± 0.6 µM | – | 0.62 ± 0.02 µM | 3.4 ± 0.2 µM | 1.5 ± 1.1 µM | – |
| Cc1cn([C@H]2C[C@H](N=[N+]=[N-])[C@@H](CO)O2)c(=O)[nH]c1=O [AZT, 3′-azido-2′,3′-dideoxythymidine] | – | – | – | – | – | – | – | – | – | – | – | – | 0.003 ± 0.001 µM | – | 0.003 ± 0.0002 µM | 0.024 ± 0.003 µM | 0.011 ± 0.007 µM | – |
| COc1ccc(S(=O)(=O)N(CC(C)C)C[C@@H](O)[C@H](Cc2ccccc2)NC(=O)O[C@H]2CO[C@H]3OCC[C@H]32)cc1 [UIC-94003] | – | – | – | – | – | – | – | – | equivalent | – | – | – | – | – | – | – | – | IC50 ([1]; wild type HIV-1ERS104pre (L63P), PHA-PBMC, p24, read-out: IC50): 0.0007 µM; IC50 (HIV-1 clinical isolate 2): 1.3 nM; IC50 (HIV-1 clinical isolate 4): 1.6 nM; IC50 (HIV-1UIC-P62): 21 nM; IC50 ([2]; eight highly PI-resistant clinical isolates, PHA-PBMC, read-out: IC50 values, range over all eight isolates): 0.5 to 5.5 nM; IC50 (HIV-1 clinical isolate 8): 1 nM; IC50 (HIV-1APV-P30; HIV-1APV-P30 (L10F, V32I, M46I, I54M, A71V, I84V), MT-2 cells, MTT assay, day 7, read-out: IC50): 29 nM; IC50 (HIV-1 clinical isolate 3): 1 nM; IC50 (HIV-2EHO): 0.0005 ± 7e-05 µM; IC50 (HIV-1 clinical isolate 5): 2.4 nM |
| Nc1ccn([C@@H]2CS[C@H](CO)O2)c(=O)n1 [Compound 3TC, LAMIVUDINE] | – | – | – | – | – | – | – | – | – | – | – | – | 0.4 ± 0.25 µM | – | 0.021 ± 0.018 µM | 0.66 ± 0.01 µM | 0.054 ± 0.046 µM | – |
